Laboratory results as given in US4605669A, “Lipoxygenase inhibiting naphthohydroxamic acids” (Abbott Laboratories, priority 1985, dated 1986).
Where two headings read alike, the source gives them in different places.

Tests used:
Format in all cases: biochemical
5-lipoxygenase = target: T1, 5-lipoxygenase (Rattus norvegicus, UniProt P12527); assay: 5-Lipoxygenase IC50 determination (20,000×G supernatant of homogenized RBL-1 cells, radiolabeled arachidonic acid); details: 20,000×G supernatant from homogenized RBL-1 cells
T1 construct: homogenized RBL-1 cells; endogenous in cells; host or cells: RBL-1 cells (20,000×G supernatant of homogenate)
T1 sequence (P12527 1-673): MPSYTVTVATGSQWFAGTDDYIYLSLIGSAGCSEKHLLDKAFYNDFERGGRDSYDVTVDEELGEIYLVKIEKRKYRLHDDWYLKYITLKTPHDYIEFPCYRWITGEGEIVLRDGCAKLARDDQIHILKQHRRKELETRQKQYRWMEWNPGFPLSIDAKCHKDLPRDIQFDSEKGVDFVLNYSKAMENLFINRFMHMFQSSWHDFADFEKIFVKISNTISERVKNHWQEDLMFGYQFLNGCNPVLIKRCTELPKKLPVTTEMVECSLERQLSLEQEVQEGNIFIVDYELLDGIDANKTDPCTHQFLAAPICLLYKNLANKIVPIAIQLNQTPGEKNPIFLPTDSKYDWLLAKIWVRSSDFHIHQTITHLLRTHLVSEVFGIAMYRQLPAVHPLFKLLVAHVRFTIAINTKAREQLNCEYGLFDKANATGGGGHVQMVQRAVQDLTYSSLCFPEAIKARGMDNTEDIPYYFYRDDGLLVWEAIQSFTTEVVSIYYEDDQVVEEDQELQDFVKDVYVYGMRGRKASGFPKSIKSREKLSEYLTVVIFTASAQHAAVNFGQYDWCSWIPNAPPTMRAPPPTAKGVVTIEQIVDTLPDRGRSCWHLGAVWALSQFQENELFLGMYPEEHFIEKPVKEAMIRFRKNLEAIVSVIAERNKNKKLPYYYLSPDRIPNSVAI
Method: (§1) Reactions were initiated by the addition of radiolabeled arachidonic acid and terminated by acidification and ether extraction. Reaction products were separated from nonconverted substrate by thin layer chromatography and measured by liquid scintillatiton spectroscopy. Inhibition of 5-lipoxygenase activity was calculated as the ratio of the amounts of product formed in the presence and absence of inhibitor.

15-lipoxygenase = target: T2, 15-lipoxygenase (Glycine max, UniProt P08170); assay: Inhibition of 15-lipoxygenase obtained from soybean; details: for inhibition at 10 µM: read-out: % Inhibition at Indicated Concentration, 15-lipoxygenase, 10 uM; for inhibition at 100 µM: read-out: % Inhibition at Indicated Concentration, 15-lipoxygenase, 100 uM
T2 construct: 15-lipoxygenase obtained from soybean; from tissue; host or cells: soybean
T2 sequence (P08170 1-839): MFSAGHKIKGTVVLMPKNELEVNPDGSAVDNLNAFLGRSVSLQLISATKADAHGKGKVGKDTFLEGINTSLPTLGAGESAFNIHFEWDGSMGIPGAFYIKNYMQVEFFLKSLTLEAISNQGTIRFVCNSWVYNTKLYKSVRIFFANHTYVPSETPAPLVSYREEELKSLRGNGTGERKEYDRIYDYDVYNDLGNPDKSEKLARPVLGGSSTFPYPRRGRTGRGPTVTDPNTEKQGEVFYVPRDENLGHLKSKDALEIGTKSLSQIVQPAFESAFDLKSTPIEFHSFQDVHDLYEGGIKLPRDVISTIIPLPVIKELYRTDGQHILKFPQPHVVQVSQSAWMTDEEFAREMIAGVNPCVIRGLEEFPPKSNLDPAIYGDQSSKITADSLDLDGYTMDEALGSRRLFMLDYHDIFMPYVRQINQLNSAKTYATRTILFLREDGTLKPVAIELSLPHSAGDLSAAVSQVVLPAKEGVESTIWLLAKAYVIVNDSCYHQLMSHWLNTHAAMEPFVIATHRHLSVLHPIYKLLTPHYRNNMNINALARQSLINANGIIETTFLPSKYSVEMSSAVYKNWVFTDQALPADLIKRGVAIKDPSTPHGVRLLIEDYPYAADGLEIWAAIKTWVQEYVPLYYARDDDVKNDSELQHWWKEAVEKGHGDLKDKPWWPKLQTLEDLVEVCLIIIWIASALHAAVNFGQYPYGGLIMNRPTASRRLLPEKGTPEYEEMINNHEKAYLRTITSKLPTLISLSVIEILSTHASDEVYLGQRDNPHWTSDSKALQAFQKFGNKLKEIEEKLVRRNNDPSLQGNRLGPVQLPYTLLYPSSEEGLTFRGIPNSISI
Method: as §1, with “The compounds of this invention are potent inhibitors of 5-, 12- and 15-lipoxygenase. An assay to determine 5-lipoxygenase activity was performed in incubations containing various concentrations of the test compound and the 20,000×G supernatant from 7.5×10^6 homogenized RBL-1 cells. Reactions” for “Reactions”
(§2) The inhibitory activities of the compounds of this invention against 12- and 15-lipoxygenase can be determined in the foregoing assay in which 12-lipoxygenase obtained from human platelets, or 15-lipoxygenase obtained from soybean, is substituted for the 5-lipoxygenase-containing cell supernatant fraction.

12-lipoxygenase = target: T3, 12-lipoxygenase (Homo sapiens, UniProt P18054); assay: Inhibition of 12-lipoxygenase obtained from human platelets; details: human platelet 12-lipoxygenase
T3 construct: 12-lipoxygenase obtained from human platelets; from tissue; host or cells: human platelets
T3 sequence (P18054 1-663): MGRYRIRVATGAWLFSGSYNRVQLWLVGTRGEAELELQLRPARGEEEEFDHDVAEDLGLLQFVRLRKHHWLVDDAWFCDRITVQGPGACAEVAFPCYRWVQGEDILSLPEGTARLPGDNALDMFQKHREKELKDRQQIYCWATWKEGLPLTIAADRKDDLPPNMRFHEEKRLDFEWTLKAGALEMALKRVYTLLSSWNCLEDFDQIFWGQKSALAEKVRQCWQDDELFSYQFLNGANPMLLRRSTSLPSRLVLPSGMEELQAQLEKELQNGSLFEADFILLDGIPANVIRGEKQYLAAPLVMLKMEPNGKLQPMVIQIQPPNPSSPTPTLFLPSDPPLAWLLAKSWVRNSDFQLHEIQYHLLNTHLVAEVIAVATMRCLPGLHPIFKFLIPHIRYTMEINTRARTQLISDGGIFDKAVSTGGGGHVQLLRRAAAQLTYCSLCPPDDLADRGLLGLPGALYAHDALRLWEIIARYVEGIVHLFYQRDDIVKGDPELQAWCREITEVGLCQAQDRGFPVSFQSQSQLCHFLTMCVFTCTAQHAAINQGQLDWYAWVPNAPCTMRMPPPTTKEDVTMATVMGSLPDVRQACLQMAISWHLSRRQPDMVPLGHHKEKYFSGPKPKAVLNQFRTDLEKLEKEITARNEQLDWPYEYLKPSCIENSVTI
Method: as §1, with “The compounds of this invention are potent inhibitors of 5-, 12- and 15-lipoxygenase. An assay to determine 5-lipoxygenase activity was performed in incubations containing various concentrations of the test compound and the 20,000×G supernatant from 7.5×10^6 homogenized RBL-1 cells. Reactions” for “Reactions”
as §2

[1] = 100 uM, soybean 15-lipoxygenase

For “6-(1-non-2-enoxy)-2-naphthohydroxamic acid [Example 8]”, the IC50 (5-lipoxygenase) was 2.9 µM, the “% Inhibition at Indicated Concentration, 15-lipoxygenase, 10 uM” value (15-lipoxygenase; 10 uM, soybean 15-lipoxygenase) was 10% and the “% Inhibition at Indicated Concentration, 15-lipoxygenase, 100 uM” value (15-lipoxygenase; [1]) was 70%. The “% Inhibition at Indicated Concentration, 12-lipoxygenase, 10 uM” value (12-lipoxygenase; 10 uM) was 74% and the “% Inhibition at Indicated Concentration, 12-lipoxygenase, 100 uM” value (12-lipoxygenase; 100 uM) was 77%.
`COc1ccc2cc(C(=O)NO)ccc2c1` [Example 2, 6-Methoxy-2-naphthohydroxamic acid] showed an IC50 (5-lipoxygenase) of 8 µM, an inhibition at 10 µM (15-lipoxygenase) of 23% and an inhibition at 100 µM (15-lipoxygenase) of 44%.
`CCCCCCCOc1ccc2cc(C(=O)NO)ccc2c1` [Example 5, 6-(1-heptoxy)-2-naphthohydroxamic acid] gave an IC50 (5-lipoxygenase) of 7.1 µM.
In the case of `CCCCCCCCOc1ccc2cc(C(=O)NO)ccc2c1` [Example 6, 6-(1-octoxy)-2-naphthohydroxamic acid], the IC50 (5-lipoxygenase) is reported as 6.5 µM, the inhibition at 10 µM (12-lipoxygenase; 10 uM, read-out: % Inhibition at Indicated Concentration, 12-lipoxygenase, 10 uM) is reported as 68% and the inhibition at 100 µM (12-lipoxygenase; 100 uM, read-out: % Inhibition at Indicated Concentration, 12-lipoxygenase, 100 uM) is reported as 71%.
Molecule `CCCCCCCCCOc1ccc2cc(C(=O)NO)ccc2c1` [Example 1, 6-(1-nonoxy)-2-naphthohydroxamic acid] has an IC50 (5-lipoxygenase) of 20 µM.
In the case of `C=CCOc1ccc2cc(C(=O)NO)ccc2c1` [Example 7, 6-(1-prop-2-enoxy)-2-naphthohydroxamic acid], the IC50 (5-lipoxygenase) is reported as 4.6 µM.
In the case of `CCCCOc1ccc2cc(C(=O)NO)ccc2c1` [Example 3, 6-(1-butoxy)-2-naphthohydroxamic acid], the IC50 (5-lipoxygenase) is reported as 2 µM, the inhibition at 10 µM (15-lipoxygenase; 10 uM, soybean 15-lipoxygenase) is reported as 45% and the inhibition at 100 µM (15-lipoxygenase; [1]) is reported as 51%.
For `O=C(NO)c1ccc2cc(OCc3ccccc3)ccc2c1` [Example 9, 6-(benzyloxy)-2-naphthohydroxamic acid], the IC50 (5-lipoxygenase) was 30 µM.
With `CCCCOc1ccc2cc(C(=O)N(C)O)ccc2c1` [Example 4, N-methyl-6-(1-butoxy)-2-naphthohydroxamic acid] the IC50 (5-lipoxygenase) was 0.41 µM, the inhibition at 10 µM (15-lipoxygenase; 10 uM, soybean 15-lipoxygenase) was 29% and the inhibition at 100 µM (15-lipoxygenase; [1]) was 74%.
